Test results from ChEMBL document CHEMBL1821607, “N-Arylalkyl-2-azaadamantanes as cage-expanded polycarbocyclic sigma (σ) receptor ligands” (Bioorg Med Chem Lett, 2011).

Assays:
[1] = biological target: T1, Alpha-1D adrenergic receptor (Homo sapiens) (UniProt P25100); test: Inhibition of alpha-1D adrenergic receptor at 10 uM by NIMH PDSP
T1 sequence (whole entry): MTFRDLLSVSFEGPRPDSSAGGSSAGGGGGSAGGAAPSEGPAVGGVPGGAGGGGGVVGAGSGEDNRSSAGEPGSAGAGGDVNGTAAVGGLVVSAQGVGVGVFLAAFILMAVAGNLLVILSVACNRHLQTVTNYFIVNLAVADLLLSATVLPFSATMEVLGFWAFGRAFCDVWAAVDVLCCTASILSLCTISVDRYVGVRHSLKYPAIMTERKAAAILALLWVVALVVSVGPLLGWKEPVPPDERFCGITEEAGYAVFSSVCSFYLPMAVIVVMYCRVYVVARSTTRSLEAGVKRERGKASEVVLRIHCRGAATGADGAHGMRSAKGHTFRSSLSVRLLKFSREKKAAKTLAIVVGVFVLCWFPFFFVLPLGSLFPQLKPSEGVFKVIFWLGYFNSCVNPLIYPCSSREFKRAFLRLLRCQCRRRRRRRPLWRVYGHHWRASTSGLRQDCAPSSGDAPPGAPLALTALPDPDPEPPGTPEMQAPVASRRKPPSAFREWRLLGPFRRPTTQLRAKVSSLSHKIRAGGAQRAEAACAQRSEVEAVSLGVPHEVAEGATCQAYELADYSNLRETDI

[2] = biological target: Beta-1 adrenergic receptor (Homo sapiens) (UniProt P08588); test: Inhibition of beta-1 adrenergic receptor at 10 uM by NIMH PDSP
Chain of Beta-1 adrenergic receptor (Homo sapiens) (P08588 whole entry, looked up): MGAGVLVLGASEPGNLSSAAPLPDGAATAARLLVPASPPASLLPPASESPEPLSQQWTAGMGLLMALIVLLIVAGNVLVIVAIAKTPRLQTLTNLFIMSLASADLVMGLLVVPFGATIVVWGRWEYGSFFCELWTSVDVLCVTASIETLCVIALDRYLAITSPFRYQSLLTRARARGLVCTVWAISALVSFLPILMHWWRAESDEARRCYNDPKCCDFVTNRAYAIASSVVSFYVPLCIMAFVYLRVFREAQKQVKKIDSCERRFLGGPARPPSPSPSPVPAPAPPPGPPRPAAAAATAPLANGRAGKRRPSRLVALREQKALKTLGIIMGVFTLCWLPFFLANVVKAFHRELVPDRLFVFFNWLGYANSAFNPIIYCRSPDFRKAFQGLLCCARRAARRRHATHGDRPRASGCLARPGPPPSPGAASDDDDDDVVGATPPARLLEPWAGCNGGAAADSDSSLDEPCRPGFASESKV

[3] = organism: Rattus norvegicus; test: Inhibition of BZP receptor in rat brain at 10 uM by NIMH PDSP; format: tissue-based
[4] = biological target: D(1A) dopamine receptor (Homo sapiens, UniProt P21728); test: Inhibition of D1 dopamine receptor at 10 uM by NIMH PDSP
Chain of D(1A) dopamine receptor (P21728 whole entry): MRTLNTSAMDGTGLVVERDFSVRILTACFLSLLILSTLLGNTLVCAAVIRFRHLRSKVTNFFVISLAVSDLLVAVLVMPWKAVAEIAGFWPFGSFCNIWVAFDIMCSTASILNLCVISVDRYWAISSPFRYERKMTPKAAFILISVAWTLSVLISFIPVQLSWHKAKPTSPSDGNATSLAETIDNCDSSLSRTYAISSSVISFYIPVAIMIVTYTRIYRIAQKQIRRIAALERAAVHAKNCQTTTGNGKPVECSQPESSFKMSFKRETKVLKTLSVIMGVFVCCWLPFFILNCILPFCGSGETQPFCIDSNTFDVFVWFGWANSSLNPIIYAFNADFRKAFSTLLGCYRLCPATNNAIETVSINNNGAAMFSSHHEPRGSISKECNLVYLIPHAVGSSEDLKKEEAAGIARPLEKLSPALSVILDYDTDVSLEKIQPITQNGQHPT

[5] = biological target: D(3) dopamine receptor (Homo sapiens) (UniProt P35462); test: Inhibition of D3 dopamine receptor at 10 uM by NIMH PDSP
Chain of D(3) dopamine receptor (Homo sapiens) (P35462 whole entry): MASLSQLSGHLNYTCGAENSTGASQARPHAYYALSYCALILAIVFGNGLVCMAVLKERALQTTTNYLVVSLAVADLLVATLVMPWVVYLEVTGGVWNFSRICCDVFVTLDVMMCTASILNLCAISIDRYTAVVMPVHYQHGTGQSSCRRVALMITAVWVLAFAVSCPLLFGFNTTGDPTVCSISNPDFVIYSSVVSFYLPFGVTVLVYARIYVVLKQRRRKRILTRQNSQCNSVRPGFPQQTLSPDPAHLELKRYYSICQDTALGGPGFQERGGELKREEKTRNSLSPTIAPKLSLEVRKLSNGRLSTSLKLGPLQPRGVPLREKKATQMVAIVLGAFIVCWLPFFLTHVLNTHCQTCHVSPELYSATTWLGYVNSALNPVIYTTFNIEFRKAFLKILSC

[6] = biological target: T2, D(4) dopamine receptor (Homo sapiens) (UniProt P21917); test: Inhibition of D4 dopamine receptor at 10 uM by NIMH PDSP
T2 sequence (whole entry): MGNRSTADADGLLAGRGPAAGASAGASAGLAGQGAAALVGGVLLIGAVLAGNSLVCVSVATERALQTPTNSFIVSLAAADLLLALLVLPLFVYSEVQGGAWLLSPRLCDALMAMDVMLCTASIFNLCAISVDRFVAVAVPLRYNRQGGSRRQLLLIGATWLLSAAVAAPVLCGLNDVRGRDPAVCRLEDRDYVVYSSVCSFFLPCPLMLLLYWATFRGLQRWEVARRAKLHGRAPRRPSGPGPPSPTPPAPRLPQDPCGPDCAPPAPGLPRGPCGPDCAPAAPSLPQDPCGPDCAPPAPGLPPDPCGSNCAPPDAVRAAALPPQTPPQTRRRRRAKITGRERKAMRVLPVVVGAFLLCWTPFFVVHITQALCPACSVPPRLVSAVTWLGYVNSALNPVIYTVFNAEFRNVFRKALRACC

[7] = biological target: D(1B) dopamine receptor (Homo sapiens) (UniProt P21918); test: Inhibition of D5 dopamine receptor at 10 uM by NIMH PDSP
Chain of D(1B) dopamine receptor (Homo sapiens) (P21918 whole entry): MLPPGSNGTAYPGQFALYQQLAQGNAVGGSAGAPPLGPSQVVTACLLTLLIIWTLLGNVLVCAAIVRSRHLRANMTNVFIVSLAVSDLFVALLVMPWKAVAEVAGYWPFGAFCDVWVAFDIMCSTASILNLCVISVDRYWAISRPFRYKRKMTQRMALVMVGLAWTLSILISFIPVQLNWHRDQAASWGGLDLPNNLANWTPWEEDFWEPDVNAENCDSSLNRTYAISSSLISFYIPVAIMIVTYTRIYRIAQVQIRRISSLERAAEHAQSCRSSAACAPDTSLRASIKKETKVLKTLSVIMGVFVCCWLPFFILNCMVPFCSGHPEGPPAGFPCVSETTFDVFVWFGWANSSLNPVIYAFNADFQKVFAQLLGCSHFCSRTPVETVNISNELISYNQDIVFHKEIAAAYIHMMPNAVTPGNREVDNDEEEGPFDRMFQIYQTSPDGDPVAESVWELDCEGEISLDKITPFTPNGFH

[8] = biological target: Histamine H2 receptor (Homo sapiens) (UniProt P25021); test: Inhibition of H2 receptor at 10 uM by NIMH PDSP
Chain of Histamine H2 receptor (Homo sapiens) (P25021 whole entry): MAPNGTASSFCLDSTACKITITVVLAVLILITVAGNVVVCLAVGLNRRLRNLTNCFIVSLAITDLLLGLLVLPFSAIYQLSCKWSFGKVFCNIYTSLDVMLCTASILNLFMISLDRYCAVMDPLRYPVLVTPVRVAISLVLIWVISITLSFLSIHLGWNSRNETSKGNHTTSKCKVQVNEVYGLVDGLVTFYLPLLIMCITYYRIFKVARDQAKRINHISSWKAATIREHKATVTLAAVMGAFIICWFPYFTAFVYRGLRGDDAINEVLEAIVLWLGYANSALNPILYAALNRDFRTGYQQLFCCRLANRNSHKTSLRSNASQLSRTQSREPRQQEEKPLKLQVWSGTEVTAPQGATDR

[9] = biological target: Histamine H3 receptor (Homo sapiens) (UniProt Q9Y5N1); test: Inhibition of H3 receptor at 10 uM by NIMH PDSP
Chain of Histamine H3 receptor (Homo sapiens) (Q9Y5N1 whole entry): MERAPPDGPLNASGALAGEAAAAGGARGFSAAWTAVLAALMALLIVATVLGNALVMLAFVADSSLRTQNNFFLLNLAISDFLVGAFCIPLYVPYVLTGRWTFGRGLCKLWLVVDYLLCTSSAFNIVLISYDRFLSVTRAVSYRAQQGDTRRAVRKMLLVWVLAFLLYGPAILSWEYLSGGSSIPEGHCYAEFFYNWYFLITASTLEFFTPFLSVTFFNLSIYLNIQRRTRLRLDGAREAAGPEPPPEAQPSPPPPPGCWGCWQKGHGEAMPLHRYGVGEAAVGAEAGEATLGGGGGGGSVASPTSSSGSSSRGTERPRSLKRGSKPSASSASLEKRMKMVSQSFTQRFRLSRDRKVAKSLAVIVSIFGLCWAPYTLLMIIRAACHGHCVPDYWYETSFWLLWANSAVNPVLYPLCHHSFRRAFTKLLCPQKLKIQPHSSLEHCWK

[10] = biological target: T3, 5-hydroxytryptamine receptor 1A (Homo sapiens) (UniProt P08908); test: Inhibition of 5-HT1A receptor at 10 uM by NIMH PDSP
T3 sequence (whole entry): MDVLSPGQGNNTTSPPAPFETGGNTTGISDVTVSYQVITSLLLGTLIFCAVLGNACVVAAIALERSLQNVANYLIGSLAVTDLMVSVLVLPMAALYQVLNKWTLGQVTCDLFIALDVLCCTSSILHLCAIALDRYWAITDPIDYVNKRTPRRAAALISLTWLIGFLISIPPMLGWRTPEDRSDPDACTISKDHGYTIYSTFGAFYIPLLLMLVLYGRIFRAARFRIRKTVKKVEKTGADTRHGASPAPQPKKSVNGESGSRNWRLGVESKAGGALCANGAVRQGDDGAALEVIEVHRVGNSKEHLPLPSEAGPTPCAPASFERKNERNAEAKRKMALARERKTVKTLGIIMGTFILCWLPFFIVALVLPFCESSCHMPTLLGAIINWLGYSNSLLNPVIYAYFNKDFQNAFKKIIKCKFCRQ

[11] = biological target: 5-hydroxytryptamine receptor 1B (Homo sapiens) (UniProt P28222); test: Inhibition of 5-HT1B receptor at 10 uM by NIMH PDSP
Chain of 5-hydroxytryptamine receptor 1B (Homo sapiens) (P28222 whole entry): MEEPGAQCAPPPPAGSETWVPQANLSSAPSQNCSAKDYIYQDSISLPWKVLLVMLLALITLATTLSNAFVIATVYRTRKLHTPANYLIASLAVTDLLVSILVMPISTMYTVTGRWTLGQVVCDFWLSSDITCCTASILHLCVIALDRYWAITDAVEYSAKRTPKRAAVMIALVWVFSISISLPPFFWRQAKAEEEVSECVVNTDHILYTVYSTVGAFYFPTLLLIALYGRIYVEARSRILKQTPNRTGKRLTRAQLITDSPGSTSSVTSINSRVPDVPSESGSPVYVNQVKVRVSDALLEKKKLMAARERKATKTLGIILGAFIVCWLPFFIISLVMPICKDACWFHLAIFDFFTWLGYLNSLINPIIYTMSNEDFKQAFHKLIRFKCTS

[12] = biological target: 5-hydroxytryptamine receptor 1D (Homo sapiens) (UniProt P28221); test: Inhibition of 5-HT1D receptor at 10 uM by NIMH PDSP
Chain of 5-hydroxytryptamine receptor 1D (Homo sapiens) (P28221 whole entry): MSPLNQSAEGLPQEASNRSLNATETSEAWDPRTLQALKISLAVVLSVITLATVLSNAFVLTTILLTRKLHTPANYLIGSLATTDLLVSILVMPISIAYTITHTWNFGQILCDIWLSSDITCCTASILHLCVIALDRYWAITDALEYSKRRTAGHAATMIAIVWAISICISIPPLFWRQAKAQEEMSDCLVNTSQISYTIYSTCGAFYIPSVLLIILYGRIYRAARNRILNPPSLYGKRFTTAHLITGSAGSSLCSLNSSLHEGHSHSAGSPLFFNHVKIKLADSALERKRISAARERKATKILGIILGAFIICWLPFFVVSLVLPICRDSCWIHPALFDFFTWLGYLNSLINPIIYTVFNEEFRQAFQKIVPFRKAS

[13] = biological target: 5-hydroxytryptamine receptor 2B (Homo sapiens) (UniProt P41595); test: Inhibition of 5-HT2B receptor at 10 uM by NIMH PDSP
Chain of 5-hydroxytryptamine receptor 2B (Homo sapiens) (P41595 whole entry): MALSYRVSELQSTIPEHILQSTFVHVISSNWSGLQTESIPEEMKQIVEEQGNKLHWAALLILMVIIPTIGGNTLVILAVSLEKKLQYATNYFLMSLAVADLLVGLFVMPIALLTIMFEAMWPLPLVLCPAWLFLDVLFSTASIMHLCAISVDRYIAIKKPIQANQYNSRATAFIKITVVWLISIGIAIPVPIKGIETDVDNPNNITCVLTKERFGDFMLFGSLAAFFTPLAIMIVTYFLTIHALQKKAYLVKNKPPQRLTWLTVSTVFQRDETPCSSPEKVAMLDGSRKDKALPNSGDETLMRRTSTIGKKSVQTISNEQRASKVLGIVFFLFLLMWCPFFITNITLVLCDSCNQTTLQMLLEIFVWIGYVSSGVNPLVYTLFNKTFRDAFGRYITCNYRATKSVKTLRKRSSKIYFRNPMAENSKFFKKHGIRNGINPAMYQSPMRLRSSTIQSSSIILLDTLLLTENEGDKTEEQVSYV

[14] = biological target: T4, 5-hydroxytryptamine receptor 2C (Homo sapiens) (UniProt P28335); test: Inhibition of 5-HT2C receptor at 10 uM by NIMH PDSP
T4 sequence (whole entry): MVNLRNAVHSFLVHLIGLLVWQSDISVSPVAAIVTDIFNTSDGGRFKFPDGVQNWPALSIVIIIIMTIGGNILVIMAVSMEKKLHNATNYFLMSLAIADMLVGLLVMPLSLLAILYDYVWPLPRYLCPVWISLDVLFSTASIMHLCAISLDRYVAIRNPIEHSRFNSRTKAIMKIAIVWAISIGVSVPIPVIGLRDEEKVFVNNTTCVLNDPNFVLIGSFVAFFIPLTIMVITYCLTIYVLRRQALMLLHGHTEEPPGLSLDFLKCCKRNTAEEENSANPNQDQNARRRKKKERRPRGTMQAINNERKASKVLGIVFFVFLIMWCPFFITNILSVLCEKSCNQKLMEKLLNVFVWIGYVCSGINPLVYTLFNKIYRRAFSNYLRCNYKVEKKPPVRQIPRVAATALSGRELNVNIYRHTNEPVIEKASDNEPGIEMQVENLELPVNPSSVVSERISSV

[15] = biological target: Delta-type opioid receptor (Homo sapiens) (UniProt P41143); test: Inhibition of delta opioid receptor at 10 uM by NIMH PDSP
Chain of Delta-type opioid receptor (Homo sapiens) (P41143 whole entry): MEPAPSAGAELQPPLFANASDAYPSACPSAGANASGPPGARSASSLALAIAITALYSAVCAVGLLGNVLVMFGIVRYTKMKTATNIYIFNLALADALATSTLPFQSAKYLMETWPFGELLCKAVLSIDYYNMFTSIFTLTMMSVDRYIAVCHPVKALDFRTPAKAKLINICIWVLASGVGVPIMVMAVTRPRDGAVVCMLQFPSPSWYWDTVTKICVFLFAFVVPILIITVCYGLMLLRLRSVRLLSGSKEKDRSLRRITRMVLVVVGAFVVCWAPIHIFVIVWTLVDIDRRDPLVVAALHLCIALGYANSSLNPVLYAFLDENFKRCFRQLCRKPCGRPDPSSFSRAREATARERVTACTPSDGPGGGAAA

Measured: inhibition

OC12CC3CC(CC(C3)N1Cc1ccccc1)C2 (racemic)
< 50%: all assays above

c1ccc(CN2C3CC4CC(C3)CC2C4)cc1
< 50%: all assays above

Fc1cccc(CN2C3CC4CC(C3)CC2C4)c1
not listed: [4]
< 50%: all other assays above

OC12CC3CC(CC(C3)N1Cc1cccc(F)c1)C2 (racemic)
< 50%: all assays above
